Consider eleven compounds from patent publication US11401278B2, “Macrocyclic indole derivatives” (The Broad Institute, Inc., priority 2017, dated 2022).

The structures appear in SMILES notation. Values joined by “and” are separate entries in the source; they are usually repeats but may differ in a detail not shown here. Identical values can stand only once. Counter-ions that a name gives are not always drawn. Like-named read-outs stand apart in the source and are kept apart here.

In one test the test system is SUDHL5. As to the kind of experiment: Induction of caspase-3/7 activity (Assay 4), SUDHL5. The format is cell-based. Conditions: caspase-3/7 induction, median. The essentials:
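Caspase-3/7 activity measured by Caspase-Glo 3/7 luminescence in DLBCL cells after 3 h compound treatment at 37 °C. Medium-only background subtracted. EC50 fitted with C0 fixed at 1 and top set to the reference compound's plateau/max induction.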

For another test, the system named is HMC-1-8. As to the kind of experiment: Antiproliferation assay (Assay 7), HMC-1-8. In kind it is cell-based. Conditions: CellTiter-Glo, several values per example, read-out: Antiproli HMC-1-8 [M] IC50. The gist of the method:
(§1)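 Cells were exposed to compound for 72 hours at 37° C. Viability was measured by CellTiter-Glo luminescence. A day 0 plate read at the start served as the time-zero reference.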
A general note: ATP-based viability assays read luminescence as a measure of living cells.

A further test relates to MV-4-11. Nature of the test: Antiproliferation assay (Assay 7), MV-4-11. In kind it is cell-based. The note with it: CellTiter-Glo, several values per example. The essentials: as §1
The target in the next test is BCL-XL (Homo sapiens (Human), UniProt Q07817). Nature of the test: Protein-protein interaction assay BCL-XL/Bad BH3 peptide (BCL-XL assay, TR-FRET). In kind it is binding. Conditions: His-BCL-XL / Bad BH3 peptide, median. The method, then:
Assay 2 Protein-Protein Interaction Assay: BCL-XL/Bad BH3 Peptide (BCL-XL Assay)
The dose-dependent inhibition by the compounds described in this invention of the interaction between BCL-XL and the BH3 domain of Bad (both human) was determined using a steady state binding competition assay with time-resolved fluorescence energy transfer (TR-FRET) readout. For that purpose BCL-XL (amino acids 1-212, C-terminal fused to a hexahistidine (6×His) tag (SEQ ID 3) and a synthetic Bad BH3-derived peptide of sequence Biotin-PEG2-PEG2-NLWAAQRYGRELRR-Nle-SDEFVDSFKK-amide (SEQ ID 4) served as protein receptor and tracer ligand respectively. The recombinant BCL-XL protein (expressed in E. coli) was purchased from BPS Bioscience (San Diego, Calif., USA). The Bad BH3-derived peptide can be obtained from e.g. Biosyntan (Berlin, Germany).
In the assay 11 different concentrations of each compound (0.1 nM, 0.33 nM, 1.1 nM, 3.8 nM, 13 nM, 44 nM, 0.15 μM, 0.51 μM, 1.7 μM, 5.9 μM and 20 μM) were typically measured as duplicates in the same microtiter plate. For that, 100-fold concentrated DMSO solutions were prepared by serial dilutions (1:3.4) of a 2 mM stock solution in a clear, 384-well microtiter plate (Greiner Bio-One, Frickenhausen, Germany). From there, 50 nl were transferred in a dark test plate (Greiner Bio-One, Frickenhausen, Germany). The assay was initiated by addition of 2 μl of a 2.5-fold concentrated His-BCL-XL solution (usually for a 1 nM end concentration in 5 μl reaction volume) in aqueous assay buffer [50 mM Tris/HCl pH 7, 100 mM sodium chloride (NaCl), 50 mM potassium fluoride (KF), 0.005% Tween-20, 2 mM DTT, 0.1% bovine gamma globulin (BGG)] to the compounds in the assay plate. This was followed by a 10-minute incubation step at 22° C. for pre-equilibration of the putative complex between His-BCL-XL and the compounds. After that, 3 μl of a 1.67-fold concentrated solution (in assay buffer) consisting of Bad BH3-derived peptide (1 nM end concentration) and TR-FRET detection reagents [1.67 nM anti-His-Eu cryptate and 1.67 nM streptavidin-XL665 (both from Cisbio Bioassays, Codolet, France)], were added.
The mixture was incubated in the dark for one hour at 22° C. and then overnight at 4° C. The formation of BCL-XL/Bad complexes was determined by measuring the resonance energy transfer of the anti-His- Eu-cryptate antibody to the streptavidin-XL665 present in the reaction. For that purpose, the fluorescence emission at 620 nm and 665 nm after excitation at 330-350 nm was measured in a TR-FRET measuring instrument, for instance a Rubystar or a Pherastar (both from BMG Lab Technologies, Offenburg, Germany) or a Viewlux (Perkin-Elmer). The ratio of the emission at 665 nm and at 622 nm was used as indicator of the amount of BCL-XL/Bad complexes present.
The resulting data (ratio) were normalized, taking 0% inhibition as the mean value of control measurements (usually 32 data points) where all reagents were included. In this case 50 nl DMSO were used instead of compounds. A 100% inhibition corresponded to the mean value of control measurements (usually 32 data points) where all reagents except BCL-XL were included. IC50 values were determined by regression analysis based on a 4 parameter equation (minimum, maximum, IC50, Hill; Y=Max+(Min−Max)/(1+(X/IC50)^HiII) using the Screener Software (Genedata).
(TR-FRET usually uses a lanthanide donor and a delayed reading to cut background.)

Setting [1] is: 72 hours, read-out: Antiproli MV-4-11 [M] IC50.
Where [2] appears, read: Homo sapiens, MV4-11, 72 h, read-out: Antiproli MV-4-11 [M] IC50.

Usually EC50 stands for the concentration at which the effect is half-maximal. A high value points to weaker potency. The IC50 is the concentration that inhibits the measured activity by half.

Chain of BCL-XL (Q07817 other isoform, or with tags, fused parts or gaps): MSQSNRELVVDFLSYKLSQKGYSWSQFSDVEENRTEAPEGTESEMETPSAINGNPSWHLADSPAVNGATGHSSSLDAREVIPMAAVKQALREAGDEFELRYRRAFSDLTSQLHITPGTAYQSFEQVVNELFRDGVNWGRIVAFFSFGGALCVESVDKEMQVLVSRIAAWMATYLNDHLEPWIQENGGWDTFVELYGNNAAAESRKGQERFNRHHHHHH

For the compound `CCc1c2c(nn1C)CN(CC)S(=O)(=O)CCCn1c(C(=O)O)c(CCCOc3cccc4cc(F)ccc34)c3ccc(Cl)c-2c31` (racemic) [Example 56, (rac)-4-chloro-3,14-diethyl-7-{3-[(6-fluoro-1-naphthyl)oxy]propyl}-2-methyl-11,12,14,15-tetrahydro-2H,10H-pyrazolo[3′,4′:4,5][1,2,8]thiadiazacycloundecino[6,7,8-hi]indole-8-carboxylic acid 13,13-dioxide], in the test on SUDHL5 (Homo sapiens, SU-DHL-5, 3 h), it took 0.2 µM to reach a half-maximal effect (EC50). For the same compound, the IC50 with HMC-1-8 (72 h) is 1.5e-06 M; in the test on HMC-1-8 (72 hours) it was 2.3e-06 M and 2.7e-06 M.

Take `CCc1c2c(nn1C)CN(CCN1CCCCC1)S(=O)(=O)CCCn1c(C(=O)O)c(CCCOc3cccc4ccccc34)c3cccc-2c31` (racemic) [Example 14, (rac)-12-Ethyl-11-methyl-1-(3-(naphthalen-1-yloxy)propyl)-8-(2-(piperidin-1-yl)ethyl)-4,5,6,8,9,11-hexahydropyrazolo[3′,4′:4,5][1,2,8]thiadiazacycloundecino[6,7,8-hi]indole-2-carboxylic acid 7,7-dioxide 2,2,2-trifluoroacetic acid salt]: the IC50 with MV-4-11 (setting [1]) is 1.28e-05 M; in the test with MV-4-11 (setting [2]), 1.18e-05 M; on BCL-XL, more than 20 µM. For the same compound, the EC50 in the test with SUDHL5 (Homo sapiens, SU-DHL-5, 3 h) was determined as 4.6 µM.

As for `CCc1c2c(nn1C)CN(C)S(=O)(=O)CCCn1c(C(=O)O)c(CCCOc3cccc4ccccc34)c3ccc(Cl)c-2c31` [Example 20, (rac)-13-Chloro-12-ethyl-8,11-dimethyl-1-(3-(naphthalen-1-yloxy)propyl)-5,6,9,11-tetrahydro-4H,8H-pyrazolo[3′,4′:4,5][1]thia[2,8]diazacycloundecino[6,7,8-hi]indole-2-carboxylic acid 7,7-dioxide], the IC50 in the test on MV-4-11 (setting [2]) was 1.31e-06 M; on BCL-XL it was more than 20 µM. In the test with SUDHL5 (Homo sapiens, SU-DHL-5, 3 h), this compound yielded an EC50 of 0.86 µM.

Regarding `CCc1c2c(nn1C)CN(C)S(=O)(=O)CCCn1c(C(=O)O)c(CCCOc3cccc4cc(F)ccc34)c3ccc(F)c-2c31` (racemic) [Example 7, (rac)-12-Ethyl-13-fluoro-1-(3-((6-fluoronaphthalen-1-yl)oxy)propyl)-8,11-dimethyl-5,6,9,11-tetrahydro-4H,8H-pyrazolo[3′,4′:4,5][1]thia[2,8]diazacycloundecino[6,7,8-hi]indole-2-carboxylic acid 7,7-dioxide], the IC50 in the test on MV-4-11 (72 hours, listed as 07, read-out: Antiproli MV-4-11 [M] IC50) is 2.15e-06 M; in the test with MV-4-11 (setting [2]), 1.35e-06 M; against BCL-XL, more than 20 µM. The same compound yielded a concentration for a half-maximal effect (EC50) with SUDHL5 (Homo sapiens, SU-DHL-5, 3 h) of 0.51 µM.

As to `CCc1c2c(nn1C)CN(C)S(=O)(=O)CCCn1c(C(=O)O)c(CCCOc3cccc4c3CCCC4)c3ccc(F)c-2c31` (racemic) [Example 34, (rac)-12-Ethyl-13-fluoro-8,11-dimethyl-1-(3-((5,6,7,8-tetrahydronaphthalen-1-yl)oxy)propyl)-5,6,9,11-tetrahydro-4H,8H-pyrazolo[3′,4′:4,5][1]thia[2,8]diazacycloundecino[6,7,8-hi]indole-2-carboxylic acid 7,7-dioxide], the IC50 was 4.83e-06 M in the test on MV-4-11 (setting [2]) and more than 20 µM at BCL-XL. The compound further displayed an EC50 in the test on SUDHL5 (Homo sapiens, SU-DHL-5, 3 h) of 1.3 µM.

For the compound `Cc1c2c(nn1C)CN(CCN1CCOCC1)S(=O)(=O)CCCn1c(C(=O)O)c(CCCOc3cccc4ccccc34)c3cccc-2c31` (racemic) [Example 1, (rac)-2,3-Dimethyl-14-[2-(morpholin-4-yl)ethyl]-7-{3-[(naphthalen-1-yl)oxy]propyl}-13,13-dioxo-10,11,12,13,14,15-hexahydro-2H-13λ^6-pyrazolo[3′,4′:4,5][1,2,8]thiadiazacycloundecino-[6,7,8-hi]indole-8-carboxylic acid], the IC50 in the test with MV-4-11 (72 hours, listed as 01, read-out: Antiproli MV-4-11 [M] IC50) was 1.8e-05 M and 2.38e-05 M; in the test with MV-4-11 (setting [2]), 1.73e-05 M; on BCL-XL, more than 20 µM. The compound also came in with an EC50 in the test on SUDHL5 (Homo sapiens, SU-DHL-5, 3 h) of 4.8 µM.

In the case of `CCc1c2c(nn1C)CN(C)S(=O)(=O)CCCn1c(C(=O)O)c(CCCOc3cc(C)c(Cl)c(C)c3)c3ccc(Cl)c-2c31` [Example 22, (rac)-13-Chloro-1-(3-(4-chloro-3,5-dimethylphenoxy)propyl)-12-ethyl-8,11-dimethyl-4,5,6,8,9,11-hexahydropyrazolo[3′,4′:4,5][1,2,8]thiadiazacycloundecino[6,7,8-hi]indole-2-carboxylic acid 7,7-dioxide], the IC50 was 2.41e-06 M in the test with MV-4-11 (setting [2]) and more than 20 µM on BCL-XL. Also, it took 1.8 µM to reach a half-maximal effect with SUDHL5 (Homo sapiens, SU-DHL-5, 3 h) (EC50).

In the case of `Cc1c2c(nn1C)CN(C)S(=O)(=O)CCCn1c(C(=O)O)c(CCCOc3ccc(F)c4ccccc34)c3ccc(F)c-2c31` [Example 30, (rac)-13-Fluoro-1-(34(4-fluoronaphthalen-1-yl)oxy)propyl)-8,11,12-trimethyl-5,6,9,11-tetrahydro-4H,8H-pyrazolo[3′,4′:4,5][1]thia[2,8]diazacycloundecino[6,7,8-hi]indole-2-carboxylic acid 7,7-dioxide], the values for the IC50 in the test on MV-4-11 (setting [2]) and against BCL-XL were 3.5e-06 M and more than 20 µM, respectively. In the test with SUDHL5 (Homo sapiens, SU-DHL-5, 3 h), this compound returned an EC50 of 1.7 µM.

In the case of `Cc1c2c(nn1C)CN(C)S(=O)(=O)CCCn1c(C(=O)O)c(CCCOc3cccc4cc(F)ccc34)c3ccc(F)c-2c31` (racemic) [Example 25, (rac)-13-Fluoro-1-(3-((6-fluoronaphthalen-1-yl)oxy)propyl)-8,11,12-trimethyl-5,6,9,11-tetrahydro-4H,8H-pyrazolo[3′,4′:4,5][1]thia[2,8]diazacycloundecino[6,7,8-hi]indole-2-carboxylic acid 7,7-dioxide], the figures for the IC50 in the test with MV-4-11 (setting [2]) and at BCL-XL were 1.73e-06 M and more than 20 µM, respectively. The compound further had an EC50 in the test on SUDHL5 (Homo sapiens, SU-DHL-5, 3 h) of 0.67 µM.

For the compound `CCc1c2c(nn1C)CN(C)S(=O)(=O)CCCn1c(C(=O)O)c(CCCOc3cccc4cc(F)ccc34)c3ccc(F)c-2c31` (single isomer, unassigned; enantiomer 2) [Example 9, (−)-3-Ethyl-4-fluoro-7-{3-[(6-fluoronaphthalen-1-yl)oxy]propyl}-2,14-dimethyl-13,13-dioxo-10,11,12,13,14,15-hexahydro-2H-13λ^6-pyrazolo[3′,4′:4,5][1,2,8]thiadiazacycloundecino-[6,7,8-hi]indole-8-carboxylic acid (Enantiomer 2)], the IC50 was 1.98e-05 M in the test with MV-4-11 (72 hours, listed as 09, read-out: Antiproli MV-4-11 [M] IC50) and more than 20 µM against BCL-XL. This compound also registered an EC50 in the test with SUDHL5 (3 hours) of 21 µM.

In the case of `CCc1c2c(nn1C)CN(CCCN1CCOCC1)S(=O)(=O)CCCn1c(C(=O)O)c(CCCOc3cccc4ccccc34)c3cccc-2c31` (racemic) [Example 15, (rac)-12-Ethyl-11-methyl-8-(3-morpholinopropyl)-1-(3-(naphthalen-1-yloxy)propyl)-4,5,6,8,9,11-hexahydropyrazolo[3′,4′:4,5][1,2,8]thiadiazacycloundecino[6,7,8-hi]indole-2-carboxylic acid 7,7-dioxide 2,2,2-trifluoroacetic acid salt], the IC50 with MV-4-11 (setting [1]) is 1.04e-05 M; in the test with MV-4-11 (setting [2]), 9.37e-06 M; on BCL-XL it was more than 20 µM. For the same compound, the response in the test with SUDHL5 (Homo sapiens, SU-DHL-5, 3 h) was half-maximal at 2.5 µM (EC50).
